Measured values reported in patent US20120065228A1, “COMPOSITIONS AND METHODS FOR TREATING, CONTROLLING, REDUCING, OR AMELIORATING OCULAR INFLAMMATORY WITH LOWER RISK OF INCREASED INTRAOCULAR PRESSURE” (priority 2007, published 2012).
Several values for one entry are separate records, joined by “and”; a condition that tells them apart may be missing. Equal values may be shown once.

Legend:
leukocytes (PMN) = assay: Leukocytes (PMN) measurement in aqueous humor, rabbit paracentesis model; assay type: in vivo; conditions: second paracentesis; for PMN in aqueous humor: individual eyes
Description: Each rabbit was placed in a restraint device and tagged with the alphanumeric code. The formulations were instilled (50 μl) into the conjunctival sac of both eyes 180, 120, 90 and 30 min before the first paracentesis; then 15, 30, 90 min after the first paracentesis. To perform the first paracentesis the animals were anaesthetized by intravenous injection of 5 mg/kg Zoletil® (Virbac; 2.5 mg/kg tiletamine HCl and 2.5 mg/kg zolazepam HCl) and one drop of local anesthetic (Novesina®, Novartis) was administered to the eye. Anterior chamber paracentesis was performed with a 26 G needle attached to a tuberculin syringe; the needle was introduced into the anterior chamber through the cornea, taking care not to damage the tissues. Two hours after the ® first paracentesis, the animals were sacrificed with 0.4 ml Tanax® (Intervet International B.V.) and the second paracentesis was performed. About 100 μl of aqueous humor were removed at the second paracentesis. Aqueous humor was immediately split in four aliquots and stored at −80° C. until analysis. Then both eyes were enucleated and the iris-ciliary body was carefully excised, placed in polypropylene tubes, and stored at −80° C. until analysis.
For the determination of the number of leukocytes we used a haemocytometer (Improved Neubauer Chamber; Bright-line. Hausser Scientific) and a Polyvar 2 microscope (Reichert-Jung).
Pupillary diameter, PGE2, protein, PMN, and MPO were expressed as mean±SEM. Statistical analysis was performed using one way ANOVA followed by a Newman-Keuls post hoc test. Clinical score was expressed as % of eyes and the statistical analysis was performed using Kruskal-Wallis followed by a Dunn post hoc test. P<0.05 was considered statistically significant in both cases. Prism 4 software (GraphPad Software, Inc.) was used for the analysis and graphs.

[1] = test system: myocilin protein in CM of monkey TM cells; assay: Myocilin protein in conditioned media of monkey TM cells (Western blot); assay type: cell-based, rhesus monkeys (Macaca mulatta); conditions: for Effect on myocilin concentrations in CM: 3 to 300 nM, second 48-hour treatment period
Description: All animal procedures were in accordance with the ARVO (Association for Research in Vision and Ophthalmology) resolution on animal care. Eyes from freshly killed, healthy rhesus monkeys (Macaca mulatta), obtained from Lonza (Walkersville, Md.), were transported in CO2-independent medium on ice, and processed approximately 40 hours post-enucleation. Following removal of iris, lens, and the bulk of the ciliary body, opercula (an anatomical feature of monkey TM) were stripped from anterior segment quadrants. Using fine scissors, strips of TM were excised, and subdivided TM fragments were explanted to multiwell plates containing growth medium (described below) and incubated with Cytodex-3 gelatin-coated beads (Sigma Chemical Company, St. Louis, Mo.). The beads attach to the explants within hours and provide additional substrate area for out-migration of cells. Proliferating TM cells colonize additional beads and also “spill” onto the tissue culture plastic and form colonies. After several days, the original TM explants and beads were transferred to new wells, generating additional primary cultures. Subconfluent monolayers of cells on tissue culture plastic were passed from 12-well plates to 35- or 60-mm dishes using a Collagenase-Dispase (Roche Applied Bioscience, Indianapolis, Ind.). Second- or third-passage subcultures were finally harvested enzymatically as above, and the cells were counted and cryopreserved in liquid nitrogen.
For each study, up to nine TM cell strains, each derived from an individual monkey, were tested separately. Cells were thawed and seeded into 12- or 48-well clusters (Falcon, BD Biosciences; 150,000 and 30,000 cells/well, respectively) in proliferation medium. When cells were 75% to 90% confluent proliferation medium was replaced by a 5:4 mixture of HESFM and Dulbecco's MEM, respectively, supplemented with 10% FBS, with added taurine, ascorbic acid phosphate, glutathione, and antibiotic as for proliferation medium (above), and with 2.72 g/L glucose and 1.72 g/L fructose. At confluence, the medium was changed to Dulbecco's MEM, containing 10% FBS^40, ascorbic acid phosphate, antibiotic, 2.72 g/L glucose and 1.72 g/L fructose. Cells were maintained as stable, confluent monolayers in this latter medium for 4 to 7 days before experimental treatments commenced.
All treatments, including media for vehicle control samples, contained a final DMSO concentration of 0.1% (v/v) across the concentration ranges selected. Treatments lasted 96 hours, with one exchange of medium on the third treatment day. The final 48-hr conditioned media (“CM”) samples were collected in their entirety (0.5 ml), centrifuged briefly to remove particulates, aliquoted, and stored at −20° C. until thawed for analysis.
Undiluted CM was combined with denaturing 4× sample buffer containing 2% SDS, and samples were loaded at equivalent protein content onto 4-20% Tris-HCl polyacrylamide gels (BioRad, Hercules, Calif.). After electrophoresis, proteins underwent wet transfer to […] nitrocellulose (BioRad) for immunoblotting. The filters were blocked with 5% (w/v) nonfat dry milk (BioRad) in Tris-buffered saline plus 0.02% (v/v) Tween-20 (“TBST”; Tween-20 from Calbiochem, San Diego, Calif.), and incubated with a 1:2000 dilution (from 200 μg/ml) of goat anti-recombinant human myocilin antibody (R&D Systems, Minneapolis, Minn.) in blocking buffer, overnight at 4° C. […]

SMILES	PMN in aqueous humor, Mean (leukocytes (PMN); 0.1% topical formulation) [number/μl]	PMN in aqueous humor (leukocytes (PMN); 0.1% topical formulation, listed as BOL)	PMN in aqueous humor, Mean (leukocytes (PMN); 0.5% topical formulation) [number/μl]	PMN in aqueous humor (leukocytes (PMN); 0.5% topical formulation, listed as BOL)	PMN in aqueous humor, Mean (leukocytes (PMN); 1% topical formulation) [number/μl]	PMN in aqueous humor (leukocytes (PMN); 1% topical formulation, listed as BOL)	Levels of myocilin protein released by cultured monkey TM cells, compared to DEX [1]	Effect on myocilin concentrations in CM [1]	Maximal efficacy for myocilin accumulation in CM, relative to DEX treatment ([1]; computed across all nine TM cells strains)	Activity on myocilin gene expression ([1]; monkey TM cells, compared with DEX at high doses)	PMN in aqueous humor (leukocytes (PMN); 0.1% topical formulation, listed as Dex)
Cc1ccc2c(NCC(O)(CC(C)(C)c3cc(F)cc4c3OCC4)C(F)(F)F)cccc2n1 (stereo not shown) [BOL-303242-X]	28.333	20 number/μl (4×) and 40 number/μl and 50 number/μl	21.250	40 number/μl (2×) and 20 number/μl (3×) and 10 number/μl (3×)	28.750	30 number/μl (3×) and 20 number/μl (3×) and 40 number/μl (2×)	significantly lower levels	increased myocilin concentrations in a dose-dependent manner	about 50%	partial agonist activity	–
C[C@@H]1C[C@H]2[C@@H]3CCC4=CC(=O)C=C[C@]4(C)[C@@]3(F)[C@@H](O)C[C@]2(C)[C@@]1(O)C(=O)CO [dexamethasone, reference compound]	30.000	–	–	–	–	–	–	increased myocilin concentrations in a dose-dependent manner	–	–	20 number/μl (3×) and 50 number/μl and 40 number/μl and 30 number/μl
